For data set [1], the system named is SAOS-2 cells. Nature of the data set: Cell cycle distribution by FACS in SAOS-2 osteosarcoma cells. In kind it is cell-based, human. Particulars: SAOS-2 synchronized in G0/G1, serum-free conditions; peptide 10^-5 M (FIG. 8).
A further data set relates to CCRF-CEM cells. Nature of the data set: Cytotoxicity by the trypan blue method in CCRF-CEM sensitive leukemia cells. The format is cell-based. Particulars: asynchronously growing CCRF-CEM sensitive cells, RPMI 10% FCS; peptide 10^-5 M (FIG. 14). The protocol: (§1) The second experimental setting relates to the leukemia cell lines K562 and CCRF-CEM and CCRF-CEM/ACT400. 100000 asynchronously growing cells/well/ml RPMI/10% FCS have each been incubated for 48 hours with each of the peptides in 6-well plates. As a readout, the number of dead cells/200 counted cells is determined according to the trypan blue method (L. D. Attardi et al., The EMBO Journal, 1996, vol. 15, no. 14, pp. 3693-3701 and M. K. Reeder & H. C. Isom, Cell Growth & Differentiation 196, vol. 7, pp. 449-460) after this 48-hour incubation.

Another data set has as its system K562 cells. Nature of the data set: Cytotoxicity by the trypan blue method in K562 leukemia cells. The note with it: asynchronously growing K562 in RPMI; peptide 10^-5 M (FIG. 13). In kind it is cell-based. The protocol:
The results have been plotted as the living cells treated with P3 being a percentage of the living cells not treated with P3. The number of the living cells has been determined by counting at least 200 cells at each time point according to the trypan blue method.
as §1

Data set [2] deals with SAOS-2 cells. Nature of the data set: Cell cycle distribution by FACS in SAOS-2 osteosarcoma cells. In kind it is cell-based, human. Particulars: for effect on cell cycle phases (words, summary of Table 2): peptide 5x10^-5 M each; for G1 (cell population in G1 phase) / G2/M (cell population in G2/M phase) / S (cell population in S phase): SAOS-2 synchronized in G0/G1, stimulated by 10% FCS for 24 h, peptide 5x10^-5 M, FACS. The protocol: (§2) The experimental setting comprises experiments with the breast cancer cell line MCF-7 containing an intact retinblastoma protein and the human osteosarcoma cell line SAOS-2 containing a defective retinoblastoma protein. Cells are seeded in 12-well plates at 100000 (=one hundred thousand) cells/well/ml in RPMI medium or DMEM medium containing 10% FCS and allowed to adhere for 24 hours. Subsequently, the cells are starved by incubation for 3 days in DMEM without FCS, such that they are synchronized in the G0/G1 phase and then the cells are stimulated by 10% FCS or 10^−8 M IGF-1 or 10^−6 M insulin, respectively, for 24 hours. The effect of each of the added peptides on each of the above modes of stimulation, which effect reflects the rate of cell division, is investigated. The control (cells synchronized in G0/G1) is fixed at time 0 after three days of starvation. The remaining cells (+/−peptide) are fixed after 24 hours. The cells are subsequently analyzed by FACS for their cell cycle distribution. Analogous methods are to be found e.g. in R. Fahraeus et al., Current Biology, 1996, vol. 6, no. 1, pp. 84-91 and L. Zhu et al., Genes & Development, 1993, vol. 7, pp. 1111-1125.

The test system of data set [3] is MCF-7 cells. Nature of the data set: Cell cycle distribution by FACS in MCF-7 breast cancer cells. In kind it is cell-based. Particulars: for morphology of treated cells: peptide 10^-5 M (FIG. 2, 4, 7, 11, 12); for effect on S phase (words, summary of Table 1): MCF-7 stimulated by IGF-1 10^-8 M or insulin 10^-6 M; for effect on S phase (words, summary of Table 1) / G1 (cell population in G1 phase) / G2/M (cell population in G2/M phase) / S (cell population in S phase): peptide 10^-5 M; for G1 (cell population in G1 phase) / G2/M (cell population in G2/M phase) / S (cell population in S phase): FACS. The protocol:
as §2

A further data set relates to CCRF-CEM/ACT 400 cells. Nature of the data set: Cytotoxicity by the trypan blue method in CCRF-CEM/ACT 400 resistant leukemia cells. In kind it is cell-based. Particulars: asynchronously growing CCRF-CEM/ACT 400 resistant cells, RPMI 10% FCS; peptide 10^-5 M (FIG. 14). How it is done:
as §1

The subject of data set [4] is MCF-7 cells. Nature of the data set: Cell cycle distribution by FACS in MCF-7 breast cancer cells. The format is cell-based.
Data set [5] relates to normal human peripheral blood mononuclear cells. Nature of the data set: Effect on normal peripheral blood mononuclear cells. The format is cell-based. The note with it: peptide 10^-5 M, 24 hours (FIG. 15). The protocol:
The incubation of cells with P3 was performed for a time period of 24 hours.

[6] abbreviates: SAOS-2 stimulated by 10% FCS, peptide 10^-5 M (FIG. 9).
The mark [7] stands for this setting: MCF-7 stimulated by IGF-1 10^-8 M.
[8] abbreviates: MCF-7 stimulated by IGF-1 10^-8 M, peptide 10^-5 M (FIG. 2, 4, 11, 12).
The mark [9] stands for this setting: MCF-7 synchronized in G0/G1, serum-free conditions, peptide 10^-5 M (FIG. 1, 3).
The mark [10] stands for this setting: MCF-7 stimulated by EGF 10^-8 M, peptide 10^-5 M (FIG. 6).
[11] abbreviates: MCF-7 stimulated by estradiol (E2) 10^-9 M, peptide 10^-5 M (FIG. 6).
The mark [12] stands for this setting: asynchronously growing MCF-7 in DMEM containing 10% FCS, peptide 10^-5 M (FIG. 10).
The mark [13] stands for this setting: MCF-7 synchronized in G0/G1, stimulated by IGF-1 10^-8 M for 24 h.
Setting [14] is: MCF-7 synchronized in G0/G1, stimulated by insulin 10^-6 M for 24 h.

Positions of bridges follow the written chain, without caps; N, C: chain ends. Non-standard residues stand in square brackets, D forms with d. Chains are numbered I, II in the order given. No end group written: not given here.

For the substance “I: [dL][dF][dY][dK][dK][dV]GGGK[dR]GKG / II: [dL][dF][dY][dK][dK][dV]GGGK[dR]G / III: [dL][dF][dY][dK][dK][dV]GGG / IV: [dL][dF][dY][dK][dK][dV]GGG (amide I:10-IV:C, I:13-II:C, II:10-III:C) [P3, NH2-[dLdFdYdKdKdV-GGG]4-[1KdRG]2-1KG-COOH]”, the “effect on cell cycle phases” value was “reduces the G1 phase and increases the S and G2/M phases” with SAOS-2 cells [1]; “increases the G1 phase and decreases the S phase” in the data set with SAOS-2 cells [2] (setting [6]); “increase of the G1 and G2/M phases as well as in a decrease of the S phase” in the data set with MCF-7 cells [3] (setting [8]); “reduces the G1 phase and increases the S phase” in the data set with MCF-7 cells [3] (setting [9]); “increases the G1- and the G2 phases as well as decreases the S phase” in the data set with MCF-7 cells [4] (setting [10]); “increases the G1- and the G2 phases as well as decreases the S phase” in the data set on MCF-7 cells [4] (setting [11]). Moreover, the “effect on cell cycle phases” value with MCF-7 cells [4] (setting [12]) was “reduces the G1 phase and increases the S phase”. Further, the “morphology of treated cells” value is reported as “corresponds to that of apoptotic cells” in the data set with SAOS-2 cells [1]; “corresponds to that of apoptotic cells” in the data set with SAOS-2 cells [2] (setting [6]); “corresponds to that of apoptotic cells” in the data set on MCF-7 cells [3] (setting [7]); “corresponds to that of apoptotic cells” in the data set on MCF-7 cells [4] (MCF-7, IGF-1 10^-8 M, peptide 5x10^-6 M (FIG. 7)); “corresponds to that of apoptotic cells” with MCF-7 cells [4] (setting [10]); “corresponds to that of apoptotic cells” with MCF-7 cells [4] (setting [11]). For the same substance, the “morphology of treated cells” value in the data set on MCF-7 cells [4] (setting [9]) and with MCF-7 cells [4] (setting [12]) was “corresponds to that of apoptotic cells” each time. Also, the cytotoxic effect result in the data set on CCRF-CEM cells and with CCRF-CEM/ACT 400 cells was “act in a cytotoxic manner” throughout. Also, the “cytotoxic effect (living treated cells as percentage of living untreated cells, trypan blue)” value in the data set on K562 cells is “time-dependent”. The “blocks the progression of the cell cycle caused by IGF-1” value in the data set on MCF-7 cells [4] (MCF-7, IGF-1 10^-8 M, several peptide concentrations (FIG. 7)) is on record as “in a dose-dependent manner”. In addition, the “effect on normal cells” value in data set [5] (activated state (b)) and in data set [5] (quiescent state (a)) was “no effect” in each case. The “morphological changes of treated cells” value in data set [5] (quiescent or activated) is on record as “do not show any morphological changes”.
As for “NH2-KVLYFKRQIKIWFQNRRMKWKK-COOH (H-KVLYFKRQIKIWFQNRRMKWKK-OH) [P8]”, the “morphology of treated cells” value in the data set with MCF-7 cells [3] (setting [7]) is reported as “corresponds to that of apoptotic cells”. Also, the “effect on cell cycle phases” value in the data set with MCF-7 cells [3] (setting [8]) is “increases the G1 phase and the G2/M phase as well as decreases the S phase”.
Consider “NH2-LFYKKVPKKKRKV-COOH (H-LFYKKVPKKKRKV-OH) [P5]”, for which the “effect on cell cycle phases (words, summary of Table 2)” value in the data set with SAOS-2 cells [2] (SAOS-2 stimulated by 10% FCS) is “increase of the G1 phase and a decrease of the S phase”. Also, in the data set with SAOS-2 cells [2], the “G1 (cell population in G1 phase)” value was determined as 73.5, the “G2/M (cell population in G2/M phase)” value worked out at 13.3 and the “S (cell population in S phase)” value is given as 13.2. Also, in the data set on MCF-7 cells [3], the “effect on S phase (words, summary of Table 1)” value was “reduce the S phase”. In the data set on MCF-7 cells [3] (setting [9]), the “effect on cell cycle phases” value was “reduces the G1 phase and increases the S phase”. In addition, in the data set on MCF-7 cells [3] (setting [13]), the “G1 (cell population in G1 phase)” value was 54.0, the “G2/M (cell population in G2/M phase)” value came to 13.6 and the “S (cell population in S phase)” value amounted to 32.4. The “morphology of treated cells” value in the data set with MCF-7 cells [4] (setting [9]) was “corresponds to that of apoptotic cells”.
With “NH2-LFYKKVRQIKIWFQNRRMKWKK-COOH (H-LFYKKVRQIKIWFQNRRMKWKK-OH) [P6]”, in the data set with SAOS-2 cells [2] (SAOS-2 stimulated by 10% FCS), the “effect on cell cycle phases (words, summary of Table 2)” value is “increase of the G1 phase and a decrease of the S phase”. Besides, the “G1 (cell population in G1 phase)” value was found to be 76.6 in the data set with SAOS-2 cells [2], 53.7 in the data set on MCF-7 cells [3] (setting [13]) and 48.7 in the data set on MCF-7 cells [3] (setting [14]). Moreover, the entries for the “G2/M (cell population in G2/M phase)” value in the data set with SAOS-2 cells [2], in the data set with MCF-7 cells [3] (setting [13]) and in the data set on MCF-7 cells [3] (setting [14]) were 11.2, 18.6 and 14.6, respectively. The “S (cell population in S phase)” value in the data set with SAOS-2 cells [2] is recorded as 12.2; in the data set with MCF-7 cells [3] (setting [13]), 27.7; with MCF-7 cells [4] (MCF-7 synchronized in G0/G1, stimulated by insulin 10^-6 M for 24 h, peptide 10^-5 M, FACS), 36.6. Also, the “effect on S phase (words, summary of Table 1)” value in the data set on MCF-7 cells [3] is “reduce the S phase”. Moreover, the “morphology of treated cells” value in the data set with MCF-7 cells [3] (setting [7]) and with MCF-7 cells [4] (setting [9]) was “corresponds to that of apoptotic cells” in each case. Also, the “effect on cell cycle phases” value in the data set with MCF-7 cells [3] (setting [8]) was “increases the G1 phase as well as decreases the S phase”; in the data set on MCF-7 cells [3] (setting [9]), “reduces the G1 phase and increases the S phase”.
Turning to “NH2-[dKdVdLdYdFdKGGG]4-[1KdRG]2-1KG-COOH (H-[dK][dV][dL][dY][dF][dK]GGG[dK][dV][dL][dY][dF][dK]GGG[dK][dV][dL][dY][dF][dK]GGG[dK][dV][dL][dY][dF][dK]GGGK[dR]GK[dR]GKG-OH; also: branched: four arms on polylysine core) [P7s, combination of dKdVdLdYdFdK, hydropathically homologous to P1, and a polylysine core]”, the “morphology of treated cells” value in the data set on MCF-7 cells [3] (setting [7]) is reported as “corresponds to that of apoptotic cells”. The “effect on cell cycle phases” value with MCF-7 cells [3] (setting [8]) is “increases the G1 phase and the G2/M phase as well as decreases the S phase”.

For the origin of these results see US6660830B1, “Peptides with antiproliferative properties” (priority 1996, dated 2003).
